This is an account of results in PubChem BioAssay AID256 (DTP/NCI, 2004).

For this test, the system named is CD2F1 mice, L1210 leukemia ip, survival T/C. Nature of the test: NCI In Vivo Anticancer Drug Screen. Data for tumor model L1210 Leukemia (intraperitoneal) in CD2F1 (CDF1) mice. The note with it: higher = longer survival. A digest of the protocol:
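Activity against a transplanted murine tumor was judged by comparing the compound group with a vehicle group. The outcome in the treated animals was divided by that in the controls.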

[1] abbreviates: endpoint: mean survival time, dose: 100.0 mg/kg/injection, schedule: Q04DX003 (ip), vehicle: saline.
The mark [2] stands for this setting: endpoint: mean survival time, dose: 200.0 mg/kg/injection, schedule: Q04DX003 (ip), vehicle: saline.
Setting [3] is: endpoint: mean survival time, dose: 400.0 mg/kg/injection, schedule: Q04DX003 (ip), vehicle: saline.
Setting [4] is: endpoint: mean survival time, dose: 100.0 mg/kg/injection, schedule: Q01DX009 (ip), vehicle: saline with Tween-80.
Setting [5] is: endpoint: mean survival time, dose: 100.0 mg/kg/injection, schedule: Q04DX003 (ip), vehicle: saline with Tween-80.
The mark [6] stands for this setting: endpoint: mean survival time, dose: 200.0 mg/kg/injection, schedule: Q01DX009 (ip), vehicle: saline with Tween-80.
[7] abbreviates: endpoint: mean survival time, dose: 200.0 mg/kg/injection, schedule: Q04DX003 (ip), vehicle: saline with Tween-80.
The mark [8] stands for this setting: endpoint: mean survival time, dose: 400.0 mg/kg/injection, schedule: Q01DX009 (ip), vehicle: saline with Tween-80.
The mark [9] stands for this setting: endpoint: mean survival time, dose: 400.0 mg/kg/injection, schedule: Q04DX003 (ip), vehicle: saline with Tween-80.
Where [10] appears, read: endpoint: mean survival time, dose: 6.25 mg/kg/injection, schedule: Q01DX009 (ip), vehicle: saline with Tween-80.
The mark [11] stands for this setting: endpoint: mean survival time, dose: 12.5 mg/kg/injection, schedule: Q01DX009 (ip), vehicle: saline with Tween-80.
[12] abbreviates: endpoint: mean survival time, dose: 25.0 mg/kg/injection, schedule: Q01DX009 (ip), vehicle: saline with Tween-80.

Each structure is given as a SMILES string. “And” between values parts separate entries of the source, which are not always exact repeats. Equal entries are not always repeated. Inconclusive results and toxic doses are left out.

Take `[Cl][Co]([Cl])[Cl].[NH-]CCCN.[NH-]CCC[NH-]`: the T/C was 113 % of control (endpoint: mean survival time, dose: 100.0 mg/kg/injection, schedule: Q01DX009 (ip), vehicle: Klucel (hydroxypropylcellulose) (HPC)); 101 % of control under setting [1]; 113 % of control (endpoint: mean survival time, dose: 200.0 mg/kg/injection, schedule: Q01DX009 (ip), vehicle: Klucel (hydroxypropylcellulose) (HPC)); 104 % of control under setting [2]; 104 % of control (endpoint: mean survival time, dose: 400.0 mg/kg/injection, schedule: Q01DX009 (ip), vehicle: Klucel (hydroxypropylcellulose) (HPC)); 104 % of control under setting [3].
On to `Clc1c(Cl)c(Cl)c(CSCc2c(Cl)c(Cl)c(Cl)c(Cl)c2Cl)c(Cl)c1Cl`, for which the T/C under setting [4] is 93 % of control; the T/C under setting [5] is 91 % of control; the T/C under setting [6] is 96 % of control; the T/C under setting [7] is 96 % of control; the T/C under setting [8] is 94 % of control; the T/C under setting [9] is 90 % of control.
In the case of `C(=C\c1cc[n+](CCc2ccccc2)cc1)/c1ccccc1`, the T/C by setting is: under setting [10], 104 % of control; under setting [11], 98 % of control; under setting [12], 108 % of control.
As for `CCCCCCCCCCCCCCCC[N+]1(CC)CC[N+](CC)(CCCCCCCCCCCCCCCC)CC1` (centres undefined), the T/C is 96 % of control (endpoint: mean survival time, dose: 100.0 mg/kg/injection, schedule: Q04DX003 (ip), vehicle: Klucel (hydroxypropylcellulose) (HPC)); 90 % of control (endpoint: mean survival time, dose: 200.0 mg/kg/injection, schedule: Q04DX003 (ip), vehicle: Klucel (hydroxypropylcellulose) (HPC)); 100 % of control (endpoint: mean survival time, dose: 400.0 mg/kg/injection, schedule: Q04DX003 (ip), vehicle: Klucel (hydroxypropylcellulose) (HPC)).
Regarding `S=C(NCc1ccccc1)NCc1ccccc1`, the T/C is, setting by setting: under setting [5], 108 % of control; under setting [7], 100 % of control; under setting [9], 102 % of control.
Regarding `Cc1ccccc1N=C=S`, the T/C is 98 % of control under setting [11]; 96 % of control under setting [12]; 106 % of control (endpoint: mean survival time, dose: 50.0 mg/kg/injection, schedule: Q01DX009 (ip), vehicle: saline with Tween-80).
In the case of `NOCc1cc(Cl)sc1Cl`, the T/C under setting [5] was 112 % of control and the T/C under setting [7] was 121 % of control.
As for `CCCCCCCCC(=O)CC`, the T/C was 98 % of control under setting [1], 98 % of control under setting [2] and 93 % of control under setting [3].
Take `CCC1(O)C(=O)OCc2c1cc1n(c2=O)Cc2cc3cc(Cl)ccc3nc2-1` (centres undefined): the T/C is 196 % of control (endpoint: median survival time, dose: 5.0 mg/kg/injection, schedule: Q04DX002 (ip), vehicle: saline with Tween-80); 264 % of control and 280 % of control (endpoint: median survival time, dose: 10.0 mg/kg/injection, schedule: Q04DX002 (ip), vehicle: saline with Tween-80); 89 % of control (endpoint: median survival time, dose: 40.0 mg/kg/injection, schedule: Q04DX002 (ip), vehicle: saline with Tween-80).
In the case of `[C-]#[O+].[C-]#[O+].[C-]#[O+].[C-]#[O+].[CH3][Sn]([CH3])[CH3].[Co]`, the T/C reads like this: (endpoint: mean survival time, dose: 0.02 mg/kg/injection, schedule: Q01DX009 (ip), vehicle: saline) 100 % of control; (endpoint: mean survival time, dose: 0.04 mg/kg/injection, schedule: Q01DX009 (ip), vehicle: saline) 102 % of control; (endpoint: mean survival time, dose: 0.09 mg/kg/injection, schedule: Q01DX009 (ip), vehicle: saline) 100 % of control and 105 % of control; (endpoint: mean survival time, dose: 0.39 mg/kg/injection, schedule: Q01DX009 (ip), vehicle: saline) 86 % of control; (endpoint: mean survival time, dose: 0.78 mg/kg/injection, schedule: Q01DX009 (ip), vehicle: saline) 107 % of control.
As for `COc1ccc(CCNC(=O)NC(C)(C)C)cc1OC`, the T/C is 96 % of control under setting [4], 100 % of control under setting [6] and 93 % of control under setting [8].
`O=C1C(F)=C(F)C(=O)C(F)=C1F`: the T/C was 97 % of control (endpoint: mean survival time, dose: 3.12 mg/kg/injection, schedule: Q01DX009 (ip), vehicle: Klucel (hydroxypropylcellulose) (HPC)) and 98 % of control (endpoint: mean survival time, dose: 6.25 mg/kg/injection, schedule: Q01DX009 (ip), vehicle: Klucel (hydroxypropylcellulose) (HPC)).
For `C[N+]1(CCC(c2ccccc2)c2ccccc2)CCCCC1`, the T/C (endpoint: mean survival time, dose: 12.5 mg/kg/injection, schedule: Q04DX003 (ip), vehicle: saline) was 96 % of control; the T/C (endpoint: mean survival time, dose: 25.0 mg/kg/injection, schedule: Q04DX003 (ip), vehicle: saline) was 104 % of control; the T/C (endpoint: mean survival time, dose: 50.0 mg/kg/injection, schedule: Q04DX003 (ip), vehicle: saline) was 102 % of control.
As for `CCOC(=O)CN(C=O)C(C)c1ccccc1` (centres undefined), the T/C under setting [5] is 98 % of control, the T/C under setting [7] was 93 % of control and the T/C under setting [9] is 92 % of control.
With `Oc1ccccc1/C=N\N=C\c1ccccc1O`, the T/C by setting is: (endpoint: mean survival time, dose: 100.0 mg/kg/injection, schedule: Q01DX001 (ip), vehicle: saline with Tween-80) 97 % of control; (endpoint: mean survival time, dose: 200.0 mg/kg/injection, schedule: Q01DX001 (ip), vehicle: saline with Tween-80) 106 % of control; (endpoint: mean survival time, dose: 400.0 mg/kg/injection, schedule: Q01DX001 (ip), vehicle: saline with Tween-80) 100 % of control.
Turning to `N#C[Se]C[Se]C#N`, the T/C (endpoint: mean survival time, dose: 6.25 mg/kg/injection, schedule: Q01DX001 (ip), vehicle: saline with Tween-80) was 104 % of control.
Consider `C[CH2][Sn]([I])([CH2]C)[CH2]C`, for which the T/C under setting [10] was 89 % of control.
Regarding `Cc1cc(NC(=O)SCCOC(=O)COc2ccc(Cl)cc2)ccc1Cl`, the T/C was 91 % of control under setting [5], 91 % of control under setting [7] and 89 % of control under setting [9].
Consider `[Br][Pt+2][Br].[NH-]C(c1ccccc1)C([NH-])c1ccccc1` (centres undefined), for which the T/C (endpoint: mean survival time, dose: 12.5 mg/kg/injection, schedule: Q04DX003 (ip), vehicle: saline with Tween-80) is 109 % of control and 119 % of control; the T/C (endpoint: mean survival time, dose: 25.0 mg/kg/injection, schedule: Q04DX003 (ip), vehicle: saline with Tween-80) was 107 % of control and 109 % of control; the T/C (endpoint: mean survival time, dose: 50.0 mg/kg/injection, schedule: Q04DX003 (ip), vehicle: saline with Tween-80) is 109 % of control.
As for `CC1CCC(C)(C)CC1(C)c1cc(CN(C)C)c(O)c(CN(C)C)c1` (centres undefined), the T/C by setting is: (endpoint: mean survival time, dose: 12.5 mg/kg/injection, schedule: Q01DX009 (ip), vehicle: acetone) 95 % of control; (endpoint: mean survival time, dose: 25.0 mg/kg/injection, schedule: Q01DX009 (ip), vehicle: acetone) 98 % of control; (endpoint: mean survival time, dose: 50.0 mg/kg/injection, schedule: Q01DX009 (ip), vehicle: acetone) 98 % of control.
Regarding `Nc1nc(N)c2nc(CCOc3ccc(C(=O)NC(CCC(=O)O)C(=O)O)cc3)cnc2n1` (centres undefined), the T/C was 87 % of control (endpoint: mean survival time, dose: 0.38 mg/kg/injection, schedule: Q01DX009 (ip), vehicle: sodium bicarbonate); 90 % of control (endpoint: mean survival time, dose: 0.75 mg/kg/injection, schedule: Q01DX009 (ip), vehicle: sodium bicarbonate); 87 % of control (endpoint: mean survival time, dose: 1.5 mg/kg/injection, schedule: Q01DX009 (ip), vehicle: sodium bicarbonate); 87 % of control (endpoint: mean survival time, dose: 3.0 mg/kg/injection, schedule: Q01DX009 (ip), vehicle: sodium bicarbonate); 98 % of control (endpoint: mean survival time, dose: 6.0 mg/kg/injection, schedule: Q01DX009 (ip), vehicle: sodium bicarbonate); 104 % of control (endpoint: mean survival time, dose: 12.0 mg/kg/injection, schedule: Q01DX009 (ip), vehicle: distilled water + Tween-80). Moreover, the T/C (endpoint: mean survival time, dose: 24.0 mg/kg/injection, schedule: Q01DX009 (ip), vehicle: distilled water + Tween-80) is 102 % of control and the T/C (endpoint: mean survival time, dose: 48.0 mg/kg/injection, schedule: Q01DX009 (ip), vehicle: distilled water + Tween-80) is 104 % of control.
`C=CC1CN2CCC1CC2C(O)c1ccnc2ccc(OC)cc12` (centres undefined): the T/C reads like this: (endpoint: mean survival time, dose: 18.75 mg/kg/injection, schedule: Q01DX009 (ip), vehicle: saline with Tween-80) 105 % of control; (endpoint: mean survival time, dose: 37.5 mg/kg/injection, schedule: Q01DX009 (ip), vehicle: saline with Tween-80) 101 % of control; (endpoint: mean survival time, dose: 75.0 mg/kg/injection, schedule: Q01DX009 (ip), vehicle: saline with Tween-80) 103 % of control.
For the compound `O=CNc1cccc(Cl)c1`, the T/C by setting is: under setting [4], 96 % of control; under setting [5], 100 % of control; under setting [6], 95 % of control; under setting [7], 90 % of control; under setting [8], 96 % of control; under setting [9], 90 % of control.
